Measured values reported in PMC12293604, “Anticancer Effect of Nature-Inspired Indolizine-Based Pentathiepines in 2D and 3D Cellular Model” (Cancers, 2025).

Experiments:
A549 [1] = assay: MTT cell viability assay, A549; assay type: cell-based; conditions: Homo sapiens, A549, 48h treatment, mean ± S.D.
Description: (§1) The human cancer cell lines MCF7 (HTB-22, breast adenocarcinoma), MDA-MB-231 (HTB-26, breast adenocarcinoma), HCT116 (CCL-247, colorectal carcinoma), and A549 (CRM-CCL-185, lung carcinoma) were obtained from the American Type Culture Collection (ATCC, Manassas, VA, USA). The fibroblast cell line CR9, kindly provided by Dr. Guven, was maintained in ISCOVE medium. HCT116 cells were cultured in Dulbecco’s Modified Eagle Medium (DMEM), whereas A549, MCF7, and MDA-MB-231 cells were maintained in Roswell Park Memorial Institute 1640 (RPMI-1640) medium. All media were supplemented with 10% fetal bovine serum (FBS), 1% L-glutamine, and 0.5% antibiotic mixture (penicillin, streptomycin, and neomycin). Cell cultures were maintained at 37 °C in a humidified atmosphere with 5% CO2, following standard culture protocols. Additionally, for HCT116 cells, the culture medium was further supplemented with 1% sodium pyruvate and 1% non-essential amino acids.
(§2) To evaluate the impact of the tested PTEs on cell viability, a colorimetric MTT assay was performed as previously described. Briefly, cells were seeded in 96-well microplates at initial densities of 5 × 10^3 cells per well for the MCF7, MDA-MB231, and A549 cell lines, and 4 × 10^3 cells per well for HCT116 cells. After an initial 24 h incubation period to allow for cell attachment and growth, the cultures were treated with different concentrations of PTEs (0.25–20 µM). Following 48 h of treatment, 50 μL of MTT solution (2 mg/mL in PBS) was added to each well, and the plates were incubated at 37 °C for 3 h to allow for MTT reduction by metabolically active cells. The resulting formazan crystals were solubilized, and cell viability was measured by recording the absorbance at 570 nm using an iMark Microplate Reader (BIORAD, Segrate, Milan, Italy). The cytotoxic effectiveness of the compounds was expressed as IC50 values, which were calculated from dose–response curves fitted with non-linear regression analysis using Calcusyn version 1.1.4. software (Biosoft, Cambridge, UK).

MDA-MB231 [2] = assay: Cell cycle distribution, flow cytometry, MDA-MB231; assay type: cell-based, human; conditions: MDA-MB231, 48 h at equitoxic (IC50) concentrations
Description: (§3) The potential of the tested PTE derivatives to induce apoptotic and/or necrotic cell death, as well as to cause alterations in cell cycle distribution, was evaluated following a 48 h exposure to their respective IC50 concentrations, using flow cytometric analysis as previously described. Briefly, the indicated cell lines were seeded in 12-well plates (3 × 10^5 cells/well) and treated 24 h post-seeding. At the end of the treatment period, following harvesting, cells were washed with PBS and fixed in ice-cold 70% ethanol at −20 °C for a minimum duration of 45 min, to assess apoptotic cell death and perform cell cycle analysis. After fixation, cells were washed again with PBS and stained with a propidium iodide (PI)/RNase solution (50 µg/mL PI and 30 U/mL RNase) in PBS for 15 min at room temperature.
(§4) Flow cytometric analysis was performed using a FACScalibur flow cytometer (Becton Dickinson, Milan, Italy), equipped with a 15 mW, 488 nm air-cooled argon ion laser. Data were acquired and analyzed with CellQuestPRO version 5.1 software. PI fluorescence was detected using a 575 nm band-pass filter. The percentage of apoptotic cells was determined by identifying sub-G1 peaks in monoparametric histograms obtained in logarithmic mode. For cell cycle distribution, PI fluorescence was also analyzed with monoparametric histograms, but data were collected in linear mode.

MDA-MB231 [3] = assay: MTT cell viability assay, MDA-MB231; assay type: cell-based; conditions: Homo sapiens, MDA-MB-231, MDA-MB231, 48h treatment, mean ± S.D.
Description: as §1, §2

[4] = system: CR9 human fibroblast cells; assay: MTT cell viability assay, CR9 fibroblasts; assay type: cell-based; conditions: 48h treatment, mean ± S.D.
Description: as §1, §2

MCF7 [5] = assay: MTT cell viability assay, MCF7; assay type: cell-based; conditions: Homo sapiens, MCF7, 48h treatment, mean ± S.D.
Description: as §1, §2

MDA-MB231 [6] = assay: Intracellular ROS levels (DCFH-DA), MDA-MB231; assay type: cell-based, human; conditions: MDA-MB231, 48 h at IC50 concentration, vs. CTR
Description: (§5) Intracellular ROS levels were quantified using 2′,7′-dichlorodihydrofluorescein diacetate (DCFH-DA) as a fluorescent probe. After 48 h of treatment, cells were collected, rinsed with PBS, and incubated in a PBS solution containing 10 µM DCFH-DA. Following incubation, fluorescence corresponding to oxidized fluorescein was measured using a 530 nm band-pass filter. ROS production was expressed in arbitrary units based on the median fluorescence intensity (MFI).

HCT116 [7] = assay: Necrotic cell death, flow cytometry (PI without fixation), HCT116; assay type: cell-based, human; conditions: HCT116, 48 h treatment at IC50 concentration
Description: as §3, §4
Necrotic cell death was assessed by omitting the ethanol fixation step from the staining protocol, thereby enabling propidium iodide (PI) to penetrate membrane-compromised cells, indicative of necrosis.

[8] = system: MCF7, MDA-MB231, A549 and HCT116 cells; assay: Intracellular ROS levels (DCFH-DA), summary across cell lines; assay type: cell-based, human; conditions: 48 h at IC50 concentration, four cell lines
Description: as §5

[9] = system: MCF7, MDA-MB-231, A549, and HCT116 cells; assay: MTT cell viability assay, summary across the cell line panel; assay type: cell-based, human; conditions: 48 h treatment, across tested cell lines
Description: The fibroblast cell line CR9, kindly provided by Dr. Guven, was maintained in ISCOVE medium. […] All media were supplemented with 10% fetal bovine serum (FBS), 1% L-glutamine, and 0.5% antibiotic mixture (penicillin, streptomycin, and neomycin). Cell cultures were maintained at 37 °C in a humidified atmosphere with 5% CO2, following standard culture protocols. Additionally, for HCT116 cells, the culture medium was further supplemented with 1% sodium pyruvate and 1% non-essential amino acids.
as §2, with “Following 48 h of treatment, 50 μL of MTT solution (2 mg/mL in PBS) was added to each well, and the plates were incubated at 37 °C for 3 h to allow for MTT reduction by metabolically active cells.” left out

[10] = system: MCF7, MDA-MB231, A549 and HCT116 cells; assay: Apoptotic cell death, flow cytometry (sub-G1, PI); assay type: cell-based, human; conditions: 48 h treatment at IC50 concentration, vs. untreated controls
Description: as §3, §4

HCT116 [11] = assay: MTT cell viability assay, HCT116; assay type: cell-based; conditions: Homo sapiens, HCT-116, HCT116, 48h treatment, mean ± S.D.
Description: as §1, §2

HCT116 [12] = assay: Cell cycle distribution, flow cytometry, HCT116; assay type: cell-based, human; conditions: HCT116, 48 h at equitoxic (IC50) concentrations
Description: as §3, §4

[13] = system: MCF7, MDA-MB231, A549 and HCT116 cell lines; assay: Hydrosulfide production (DNS-N3 probe), summary across cell lines; assay type: cell-based, human; conditions: 48 h at IC50 concentration, all cell lines
Description: (§6) PTEs-induced sulfide production was evaluated using dansyl azide (DNS-N3) as a probe. DNS-N3 is non-fluorescent itself, while in the presence of hydrosulfide, the azide transforms into the dansyl amide and fluorescence is switched on. After 48 h of treatment, cells were harvested, washed with PBS, and incubated in a PBS solution containing 200 μM DNS-N3. Following 30 min incubation at 37 °C, fluorescence increase was measured through a 575 nm band-pass filter. The levels of hydrosulfide production were assessed and reported in arbitrary units, calculated from the median fluorescence intensity (MFI) measurements. For all flow cytometric analyses, untreated cells (i.e., not exposed to PTE compounds) were used as negative controls.

MCF7 [14] = assay: Intracellular ROS levels (DCFH-DA), MCF7; assay type: cell-based, human; conditions: MCF7, 48 h at IC50 concentration, vs. CTR
Description: as §5

HCT116 [15] = assay: Hydrosulfide production (DNS-N3 probe), HCT116; assay type: cell-based, human; conditions: HCT116, 48 h at IC50 concentration
Description: as §6

MCF7 [16] = assay: Cell cycle distribution, flow cytometry, MCF7; assay type: cell-based, human; conditions: MCF7, 48 h at equitoxic (IC50) concentrations
Description: as §3, §4

A549 [17] = assay: Cell cycle distribution, flow cytometry, A549; assay type: cell-based, human; conditions: A549, 48 h at equitoxic (IC50) concentrations
Description: as §3, §4

HCT116 [18] = assay: Intracellular ROS levels (DCFH-DA), HCT116; assay type: cell-based, human; conditions: HCT116, 48 h at IC50 concentration, vs. CTR
Description: as §5

| SMILES | IC50 (A549 [1]) [nM] | cell cycle shift: decrease in the G0/G1 phase population with G2/M phase accumulation (MDA-MB231 [2]) | IC50 (MDA-MB231 [3]) [nM] | IC50 [4] [nM] | IC50 (MCF7 [5]) [nM] | increase in ROS production (MDA-MB231 [6]) | necrosis relative to apoptosis (HCT116 [7]) | ROS production (ranking in words) [8] | cytotoxic potency (in words) [9] | apoptotic cell death [10] | IC50 (HCT116 [11]) [nM] | cell cycle shift: decrease in the G0/G1 phase population with G2/M phase accumulation (HCT116 [12]) | sulfide production (in words) [13] | increase in ROS production (MCF7 [14]) | sulfide increase (HCT116 [15]) | cytotoxic potency (in words) ([9]; listed as 2^PG) | cytotoxic potency (in words) ([9]; listed as 2^Ph) | cell cycle shift: decrease in the G0/G1 phase population with G2/M phase accumulation (MCF7 [16]) | cell cycle shift: decrease in the G0/G1 phase population with G2/M phase accumulation (A549 [17]) | increase in ROS production (HCT116 [18]) |
| --- | --- | --- | --- | --- | --- | --- | --- | --- | --- | --- | --- | --- | --- | --- | --- | --- | --- | --- | --- | --- |
| OCCOc1c2c(c3ccccn13)SSSSS2 [2^Gly] | 790 ± 60 | triggered similar effects | 300 ± 30 | 1610 ± 130 | 1130 ± 20 | statistically significant | higher levels of necrosis relative to apoptosis | better ROS producers | highest cytotoxic potency | most potent inducers of apoptosis | 603 ± 40 | triggered similar effects | most potent inducers of sulfide production |  |  |  |  |  |  |  |
| CCOc1c2c(c3ccc([N+](=O)[O-])cn13)SSSSS2 [3^NO2] | 3220 ± 390 |  | 630 ± 750 | 2870 ± 140 | 3210 ± 130 | statistically significant |  |  | noteworthy efficacy | most potent inducers of apoptosis | 1590 ± 150 |  |  | statistically significant |  |  |  |  |  |  |
| Cc1c2c(c3ccccn13)SSSSS2 [2^Me] | 2540 ± 270 | triggered similar effects | 1450 ± 40 | 7910 ± 320 | 4770 ± 140 | statistically significant | higher levels of necrosis relative to apoptosis | better ROS producers | noteworthy efficacy | most potent inducers of apoptosis | 2270 ± 340 | triggered similar effects | most potent inducers of sulfide production | statistically significant | did not induce sulfide increase | highest cytotoxic potency | lowest cytotoxic activity |  |  |  |
| CCOc1c2c(c3ccccn13)SSSSS2 [compound 1] | 1540 ± 80 | induced this characteristic cell cycle shift | 630 ± 40 | 7320 ± 150 | 2680 ± 310 | statistically significant |  | better ROS producers | noteworthy efficacy | most potent inducers of apoptosis | 830 ± 40 | induced this characteristic cell cycle shift | most potent inducers of sulfide production | statistically significant |  |  |  | induced this characteristic cell cycle shift | induced this characteristic cell cycle shift | statistically significant |
| COc1cccc2c1C(=O)c1c(O)c3c(c(O)c1C2=O)C[C@@](O)(C(=O)CO)C[C@@H]3O[C@H]1C[C@H](N)[C@H](O)[C@H](C)O1 [doxo, doxorubicin, reference compound] | 1500 ± 210 |  | 17800 ± 1960 |  | 4500 ± 510 |  |  |  |  |  | 3500 ± 600 |  |  |  |  |  |  |  |  |  |
| CCOc1c2c(c3ccc(C=O)cn13)SSSSS2 [3^CHO, 6-ethoxy-9-formyl-[1,2,3,4,5]pentathiepino [6,7-a]indolizine] | 1030 ± 40 | exerted this effect exclusively in MDA-MB231 cells | 390 ± 40 | 1900 ± 120 | 1700 ± 30 | statistically significant | higher levels of necrosis relative to apoptosis | better ROS producers | highest cytotoxic potency | most potent inducers of apoptosis | 740 ± 60 |  | most potent inducers of sulfide production | statistically significant |  |  |  |  |  |  |
